Data published in publication PMC6522510 (Nature Communications, 2019).
Like-named read-outs stand apart in the source and are kept apart here.

Tests used:
Design in all cases: species or system AML cell lines (8); Primary HTS, single concentration about 10 uM, Cell Titer Glo viability; log10 luminescence, per cent inhibition relative to cycloheximide control
Conditions in all cases: 72 h, relative to cycloheximide control, log10 luminescence, inhibitor
CHRF288-11 = tested on: CHRF288-11
CMK = tested on: CMK
CMS = tested on: CMS
M07e = tested on: M07e
ML-2 = tested on: ML-2
MOLM-13 = tested on: MOLM-13
MV4-11 = tested on: MV4-11
U937 = tested on: U937

`CC=CC1=C(C(=O)O)N2C(=O)[C@@H](NC(=O)[C@H](N)c3ccc(O)cc3)[C@H]2SC1` [SJ000565172-1, CEFPROZIL] was tested, and the CHRF288-11 %inh (CHRF288-11; CHRF288-11 %inh, 10 µM) was -2.763%, the CMK %inh (CMK; CMK %inh, 10 µM) was -2.483% and the CMS %inh (CMS; CMS %inh, 10 µM) was -1.599%. For the same molecule, the M07e %inh (M07e; M07e %inh, 10 µM) was -0.1553%, the ML-2 %inh (ML-2; ML-2 %inh, 10 µM) was -0.9482% and the MOLM-13 %inh (MOLM-13; MOLM-13 %inh, 10 µM) was 3.181%. For the same molecule, the MV4-11 %inh (MV4-11; MV4-11 %inh, 10 µM) was 3.254% and the U937 %inh (U937; U937 %inh, 10 µM) was 0.9255%.
In the case of `CC=CC1=C(C(=O)O)N2C(=O)[C@@H](NC(=O)[C@H](N)c3ccc(O)cc3)[C@H]2SC1` [SJ000565172-2, CEFPROZIL], the CHRF288-11 %inh (CHRF288-11; CHRF288-11 %inh, 10 µM) is reported as -7.818%, the CMK %inh (CMK; CMK %inh, 10 µM) is reported as 1.641% and the CMS %inh (CMS; CMS %inh, 10 µM) is reported as -3.774%. The M07e %inh (M07e; M07e %inh, 10 µM) was -4.985%, the ML-2 %inh (ML-2; ML-2 %inh, 10 µM) was -1.058% and the MOLM-13 %inh (MOLM-13; MOLM-13 %inh, 10 µM) was 0.07702%. It also gave an MV4-11 %inh (MV4-11; MV4-11 %inh, 10 µM) of 1.013% and a U937 %inh (U937; U937 %inh, 10 µM) of -2.74%.
For `CC=CC1=C(C(=O)O)N2C(=O)[C@@H](NC(=O)[C@H](N)c3ccc(O)cc3)[C@H]2SC1` [SJ000565172-3, CEFPROZIL], the CHRF288-11 %inh (CHRF288-11; CHRF288-11 %inh, 10 µM) was -2.278%, the CMK %inh (CMK; CMK %inh, 10 µM) was -7.257% and the CMS %inh (CMS; CMS %inh, 10 µM) was 0.3567%. It also gave an M07e %inh (M07e; M07e %inh, 10 µM) of -2.148%, an ML-2 %inh (ML-2; ML-2 %inh, 10 µM) of -1.603% and an MOLM-13 %inh (MOLM-13; MOLM-13 %inh, 10 µM) of -1.663%. It also gave an MV4-11 %inh (MV4-11; MV4-11 %inh, 10 µM) of -2.606% and a U937 %inh (U937; U937 %inh, 10 µM) of -1.915%.
For `C#C[C@]1(O)CC[C@H]2[C@@H]3CCC4=CCCC[C@@H]4[C@H]3C(=C)C[C@@]21CC` [SJ000565174-1, DESOGESTREL], the CHRF288-11 %inh (CHRF288-11) was 1.152%, the CMK %inh (CMK) was 2.427% and the CMS %inh (CMS) was 2.249%. The M07e %inh (M07e) was 3.523%, the ML-2 %inh (ML-2) was 3.09% and the MOLM-13 %inh (MOLM-13) was 0.3348%. For the same molecule, the MV4-11 %inh (MV4-11) was 4.001% and the U937 %inh (U937) was 2.771%.
Work on `COc1ccc2cc1Oc1cc3c(cc1OC)CC[N+](C)(C)[C@H]3Cc1ccc(cc1)Oc1c(OC)c(OC)cc3c1[C@@H](C2)[N+](C)(C)CC3` [SJ000565179-1, METOCURINE IODIDE] yielded a CHRF288-11 %inh (CHRF288-11) of 0.972%, a CMK %inh (CMK) of -2.411% and a CMS %inh (CMS) of -2.545%. It also gave an M07e %inh (M07e) of -0.367%, an ML-2 %inh (ML-2) of -0.842% and an MOLM-13 %inh (MOLM-13) of 0.1471%. For the same molecule, the MV4-11 %inh (MV4-11) was 1.51% and the U937 %inh (U937) was -0.03863%.
With `CCOC(=O)C(C)Oc1cccc2c(=O)n(CC(=O)Nc3ccc4c(c3)OCCO4)ccc12` (stereo not shown) [SJ000565608-2, SID 7969543] the CHRF288-11 %inh (CHRF288-11) was 4.074%, the CMK %inh (CMK) was 1.565% and the CMS %inh (CMS) was -1.631%. For the same molecule, the M07e %inh (M07e) was -1.631%, the ML-2 %inh (ML-2) was 3.909% and the MOLM-13 %inh (MOLM-13) was 1.293%. It also gave an MV4-11 %inh (MV4-11) of 2.255% and a U937 %inh (U937) of -0.5022%.
`COc1ccc(-c2ccc3c(N4CCOC[C@@H]4C)nc(N4CCOC[C@@H]4C)nc3n2)cc1CO` [SJ000571306-4, 1009298-09-2 | AZD8055 | | AZD8055] gave a CHRF288-11 %inh (CHRF288-11) of 63.41%, a CMK %inh (CMK) of 103.1% and a CMS %inh (CMS) of 58.27%. It also gave an M07e %inh (M07e) of 41.99%, an ML-2 %inh (ML-2) of 20% and an MOLM-13 %inh (MOLM-13) of 34.83%. The MV4-11 %inh (MV4-11) was 44.46% and the U937 %inh (U937) was 53.04%.
`Cc1ccccc1-n1c(Cn2cnc3c(N)ncnc32)nc2cccc(C)c2c1=O` [SJ000571308-2, IC-87114 | PIK 293] was tested, and the CHRF288-11 %inh (CHRF288-11) was 10.49%, the CMK %inh (CMK) was -7.948% and the CMS %inh (CMS) was -0.8579%. The M07e %inh (M07e) was -1.447%, the ML-2 %inh (ML-2) was 1.318% and the MOLM-13 %inh (MOLM-13) was 2.064%. It also gave an MV4-11 %inh (MV4-11) of 3.81% and a U937 %inh (U937) of 0.4255%.
Work on `Fc1cccc(COc2ccc(Nc3ncnc4sc(-c5ccco5)cc34)cc2Cl)c1` [SJ000573002-1, U22476/39/2] yielded a CHRF288-11 %inh (CHRF288-11) of -4.95%, a CMK %inh (CMK) of -2.703% and a CMS %inh (CMS) of 0.3499%. For the same molecule, the M07e %inh (M07e) was -3.433%, the ML-2 %inh (ML-2) was 0.9644% and the MOLM-13 %inh (MOLM-13) was -2.902%. The MV4-11 %inh (MV4-11) was -1.439% and the U937 %inh (U937) was 0.5844%.
`COc1cc2ncn(-c3cc(O[C@@H](C)c4ccccc4Cl)c(C(N)=O)s3)c2cc1OC` [SJ000573003-1, U20723/53/1 | U20723/56/1] gave a CHRF288-11 %inh (CHRF288-11) of 52.73%, a CMK %inh (CMK) of 79.08% and a CMS %inh (CMS) of 40.55%. For the same molecule, the M07e %inh (M07e) was 89.94%, the ML-2 %inh (ML-2) was 43.99% and the MOLM-13 %inh (MOLM-13) was 83.64%. It also gave an MV4-11 %inh (MV4-11) of 67.89% and a U937 %inh (U937) of 74.14%.
With `COc1cc2ncn(-c3cc(O[C@H](C)c4ccccc4Cl)c(C(N)=O)s3)c2cc1OC` [SJ000573003-2, U20723/53/1 | U20723/56/1] the CHRF288-11 %inh (CHRF288-11) was 41.02%, the CMK %inh (CMK) was 110.4% and the CMS %inh (CMS) was 80.13%. For the same molecule, the M07e %inh (M07e) was 88.84%, the ML-2 %inh (ML-2) was 11.11% and the MOLM-13 %inh (MOLM-13) was 108.1%. For the same molecule, the MV4-11 %inh (MV4-11) was 78.95% and the U937 %inh (U937) was 82.96%.
`CS(=O)(=O)CCNCc1ccc(-c2ccc3ncnc(Nc4ccc(OCc5ccccc5)c(Cl)c4)c3c2)o1` [SJ000573004-1, U12816/179/1] gave a CHRF288-11 %inh (CHRF288-11) of 2.861%, a CMK %inh (CMK) of 1.726% and a CMS %inh (CMS) of -1.14%. For the same molecule, the M07e %inh (M07e) was -1.936%, the ML-2 %inh (ML-2) was 2.349% and the MOLM-13 %inh (MOLM-13) was -1.767%. The MV4-11 %inh (MV4-11) was 1.075% and the U937 %inh (U937) was -2.727%.
`[O-][S+]1CCN(Cc2ccc(-c3ccc4ncnc(Nc5ccc(OCc6cccc(F)c6)c(Cl)c5)c4c3)o2)CC1` [SJ000573006-1, U16708/127/1] gave a CHRF288-11 %inh (CHRF288-11) of 12.8%, a CMK %inh (CMK) of 4.042% and a CMS %inh (CMS) of 4.852%. For the same molecule, the M07e %inh (M07e) was -1.786%, the ML-2 %inh (ML-2) was 0.7137% and the MOLM-13 %inh (MOLM-13) was -0.7641%. The MV4-11 %inh (MV4-11) was -1.095% and the U937 %inh (U937) was -0.3031%.
`CCS(=O)(=O)c1ccc(OC)c(Nc2ncc(-c3cccc(F)c3)o2)c1` [SJ000573008-1, U15747/41/2] gave a CHRF288-11 %inh (CHRF288-11) of -0.1874%, a CMK %inh (CMK) of 0.9043% and a CMS %inh (CMS) of 0.7614%. It also gave an M07e %inh (M07e) of 1.435%, an ML-2 %inh (ML-2) of 0.9608% and an MOLM-13 %inh (MOLM-13) of 34.16%. The MV4-11 %inh (MV4-11) was 41.43% and the U937 %inh (U937) was 1.214%.
With `COc1cc(Nc2ncc(-c3ccccc3)o2)cc(OC)c1OC` [SJ000573009-1, U21834/26/1] the CHRF288-11 %inh (CHRF288-11) was 41.65%, the CMK %inh (CMK) was 106.1% and the CMS %inh (CMS) was 12.03%. It also gave an M07e %inh (M07e) of 25.07%, an ML-2 %inh (ML-2) of 46.26% and an MOLM-13 %inh (MOLM-13) of 93.46%. For the same molecule, the MV4-11 %inh (MV4-11) was 70.39% and the U937 %inh (U937) was 48.56%.
`O=S(=O)(CCNCc1ccc(-c2ccc3ncnc(Nc4ccc(OCc5cccc(F)c5)c(Cl)c4)c3c2)o1)c1ccccc1` [SJ000573010-1, U15277/78/1] was tested, and the CHRF288-11 %inh (CHRF288-11) was -1.699%, the CMK %inh (CMK) was 1.889% and the CMS %inh (CMS) was -1.695%. The M07e %inh (M07e) was -3.622%, the ML-2 %inh (ML-2) was 0.08634% and the MOLM-13 %inh (MOLM-13) was 2.488%. It also gave an MV4-11 %inh (MV4-11) of -1.134% and a U937 %inh (U937) of 1.807%.
In the case of `CS(=O)(=O)CCNCc1ccc(-c2ccc3ncnc(Nc4ccc(OCc5ccccc5)c(Br)c4)c3c2)o1` [SJ000573011-1, U14801/114/2], the CHRF288-11 %inh (CHRF288-11) is reported as 1.432%, the CMK %inh (CMK) is reported as 0.7024% and the CMS %inh (CMS) is reported as 2.264%. For the same molecule, the M07e %inh (M07e) was -3.258%, the ML-2 %inh (ML-2) was -0.7119% and the MOLM-13 %inh (MOLM-13) was 0.135%. The MV4-11 %inh (MV4-11) was 1.235% and the U937 %inh (U937) was -1.717%.
Work on `Fc1ccc(-c2ncn(C3CCNCC3)c2-c2ccnc(Oc3ccc(F)c(F)c3)n2)cc1` [SJ000573012-1, JB27026-232B1] yielded a CHRF288-11 %inh (CHRF288-11) of -0.6747%, a CMK %inh (CMK) of 0.6183% and a CMS %inh (CMS) of 1.648%. For the same molecule, the M07e %inh (M07e) was -2.095%, the ML-2 %inh (ML-2) was 1.308% and the MOLM-13 %inh (MOLM-13) was -3.394%. For the same molecule, the MV4-11 %inh (MV4-11) was 1.825% and the U937 %inh (U937) was -1.918%.
With `Fc1ccc(-c2ncn(C3CCNCC3)c2-c2ccnc(Oc3ccccc3)n2)cc1` [SJ000573013-1, JB19236-077B1] the CHRF288-11 %inh (CHRF288-11) was 6.56%, the CMK %inh (CMK) was -1.927% and the CMS %inh (CMS) was -0.5294%. It also gave an M07e %inh (M07e) of 0.9358%, an ML-2 %inh (ML-2) of 1.79% and an MOLM-13 %inh (MOLM-13) of -2.821%. The MV4-11 %inh (MV4-11) was 0.9088% and the U937 %inh (U937) was 2.101%.
`C[C@@H](Oc1cc(-n2cnc3ccc(OC4CCN(C)CC4)cc32)sc1C(N)=O)c1ccccc1Cl` [SJ000573015-1, U20958/186/1] gave a CHRF288-11 %inh (CHRF288-11) of 79.26%, a CMK %inh (CMK) of 85.68% and a CMS %inh (CMS) of 56.77%. The M07e %inh (M07e) was 91.2%, the ML-2 %inh (ML-2) was 28.2% and the MOLM-13 %inh (MOLM-13) was 100.2%. The MV4-11 %inh (MV4-11) was 65.04% and the U937 %inh (U937) was 71%.
